Measured values as given in patent US20130236960A1, “VITRIFICATED STORAGE SOLUTION FOR CELLS” (priority 2010, published 2013).
“Also recorded” adds a separate entry of the source.

Legend:
[1] = Examination of vitrification promoting substances in 30% DMSO/PBS; assay type: physicochemical; conditions: 0.3 M added to 30% DMSO solution
Procedure: Specifically, the experiment was conducted as follows: • As the vitrification promoting substance, the following saccharides were examined: glucose, sucrose, maltose, fructose, trehalose, raffinose, erythritol, xylitol, sorbitol and mannitol. • The vitrification promoting substance was dissolved in 30% DMSO/PBS to a concentration of 0.3 M and 0.6 M respectively. • The solution thus prepared was divided into 200 μl portions in cryo-tubes, which were dipped into liquid nitrogen for rapid cooling. The tubes were dipped into liquid nitrogen for 5 minutes or more to stabilize the temperature before observation of each tube.

[2] = Solubility at low temperature; assay type: physicochemical
[3] = Vitrification ability of cell membrane permeable substances by rapid cooling with liquid nitrogen; assay type: physicochemical; conditions: 30% solution in PBS
Procedure: The 10 to 50% solutions of 6 dials (EG, PG, BG, IPG, DPG and PEG) and of DMSO were prepared and confirmed to be vitrified by rapid cooling with liquid nitrogen. Specifically, respective cell membrane permeable substances are dissolved in PBS to concentrations of 10, 20, 30, 40 and 50%, and the solution was stained with a small amount of phenol red in order to readily judge the vitrification. The solution thus prepared was divided into 200 μl portions in cryo-tubes, which were dipped into liquid nitrogen for rapid cooling. The tubes were dipped into liquid nitrogen for 5 minutes or more to stabilize the temperature before observation of each tube.

[4] = Examination of ice crystal growth inhibitor: time for melting the vitrified storage solution; assay type: physicochemical; conditions: for time required for the once vitrificated storage solution to be melted completely: 40% EG storage solution with the additive
Procedure: Examination of the ice crystal growth inhibitor was conducted by comparing the times required for melting the crystallized vitrificated storage solutions. That is, when crystal lumps having the same volume are melted, a polycrystalline substance having a larger total surface area is melted more quickly. It is believed that when the growth of ice crystals is suppressed on the phase transition to crystalline state, the melting time is shortened probably due to the formation of many minute ice crystals.
Specifically, experiment was conducted according to the following procedure. • The test fluid prepared was dispensed in a portion of 200 μl into 1.5 ml microtubes. • Dewar vessel was charged with liquid nitrogen, and a timer was provided. • The microtube was picked up with tweezers and dipped into liquid nitrogen for 40 seconds for vitrification. • The microtube was pulled out from liquid nitrogen, and the time required for complete disappearance of ice within the tube was measured.

[5] = test system: Common marmoset (CM) ES cells; experiment: Cytotoxicity and influence on differentiation with common marmoset ES cells; assay type: cell-based; conditions: 2% in culture medium for CMES; for nature of the colony morphology: after 3 days
Procedure: Specifically, the experiment was conducted as follow • CMES cells were cultured with reference to “Establishment of novel embryonic stem cell lines derived from the common marmoset” ([…], Izawa […], Asano 5, Nakatsuji N, Okano H, Tani K. Stem Cells. 2005 October; 23(9):1304-13). • CMES cells were seeded in a φ35 mm dish to which feeder cells had preliminarily been adhered, and the cell membrane permeable substance was added in an amount corresponding to 2% of the amount of the culture medium. • After 3 days, microscopic observation was conducted, and the presence of the growth suppression and differentiation promotion on CMES cells was examined.

[6] = test system: Mouse ES cell line strain D3; experiment: Vitrification preservation efficiency with mouse ES cells (trypan blue survival rate, colony observation); assay type: cell-based; conditions: for colonies after vitrification, melting and culture: cell membrane permeable substance used alone, 40%, 60 seconds, 3 days culture
Procedure: The mouse ES cells after vitrification and melting were seeded, and the state of the cells after culture was confirmed by microscopic observation.
(§1) Specifically, the experiment was conducted as follows: • Mouse ES cells were cultured according to the ordinary method. • The mouse ES cells recovered were counted, divided into 10^6 cell portions in 1.5 ml tubes, and centrifuged at 1500 rpm for 5 minutes. • The supernatant was removed, and the cells were suspended in 200 μl of the vitrification medium. • After suspension, DAP213 and the test fluid were dipped into liquid nitrogen after 15 seconds and 60 seconds, respectively, for vitrification. • The tubes were left standing for 5 minutes or more to stabilize the temperature. • The tubes were taken out liquid nitrogen, and the cells were diluted with 1800 μl of the culture medium preliminarily heated to 37° C. and rapidly suspended for melting. • A portion of the suspension was sampled for counting the cells. • On counting the cells, the life or death of cells was judged from the index of the selective excretive ability of the viable cells to trypan blue and the survival rate was calculated. • The remaining cells were seeded in a 24 well plate, and the state after 3 days was confirmed by microscopic observation.
The 40% solution of each cell membrane permeable substance in PBS was prepared, and the mouse ES cells was suspended in the solution, left standing for 60 seconds, and dipped into liquid nitrogen for vitrification.
as §1, with “Specifically,” for “Specifically, the”, “out from” for “out”
as §1, with “Specifically,” for “Specifically, the”, “out from” for “out”, “calculated.” for “calculated. • The remaining cells were seeded in a 24 well plate, and the state after 3 days was confirmed by microscopic observation.”

[7] = test system: Common marmoset ES cell line strain CMES40; experiment: Preservation effect on common marmoset ES cells (take rate, ALP-positive colonies); assay type: cell-based; conditions: cell membrane permeable substance used alone, with trehalose, 60 seconds
Excerpt: According to the present invention, it is possible to provide a vitrification medium which is excellent in operability and safety and can efficiently preserve cells, particularly primate ES/iPS cells. Specifically, the take rate of ca. 60% could be obtained even if simian ES cells were suspended in the vitrification medium of the present invention and after 60 seconds the suspension was poured into liquid nitrogen (as described hereinafter, the “take rate” in place of the “survival rate” is used with respect to the preservation efficiency of simian ES cells. In this place, the take rate is calculated on the basis of the number of undifferentiated colonies having taken after three or four days from the seeding of the cells without vitrification as 100). Hitherto, when DAP213, which has been most commonly used, was used, it was important to pour the cell suspension into liquid nitrogen within 15 seconds after suspending the cells in DAP213 for avoiding the lowering of the survival rate. Due to this fact, skillfulness was required for operations and wide dispersion in results was apprehended to occur depending on the technical skills of operators, so that a stable result was not always obtained. […]

OC[C@H]1O[C@H](OC[C@H]2O[C@H](O[C@]3(CO)O[C@H](CO)[C@@H](O)[C@@H]3O)[C@H](O)[C@@H](O)[C@@H]2O)[C@H](O)[C@@H](O)[C@H]1O [raffinose, D-(+)-Raffinose-pentahydrate]
vitrification by rapid cooling in liquid nitrogen [1]: vitrified
solubility [2]: low solubility

CC(C)(O)CCO [IPG, Isoprene glycol]
vitrification by rapid cooling with liquid nitrogen [3]: vitrified

OC[C@H]1O[C@H](O[C@H]2O[C@H](CO)[C@@H](O)[C@H](O)[C@H]2O)[C@H](O)[C@@H](O)[C@@H]1O [trehalose, D-(+)-Trehalose-dihydrate]
vitrification by rapid cooling in liquid nitrogen [1]: vitrified
time required for the once vitrificated storage solution to be melted completely [4]: no reduction of melting time

Bovine serum albumin [reference compound]
time required for the once vitrificated storage solution to be melted completely [4]: an effect similar to that of sericin, its activity remained unsatisfactory

sericin
time required for the once vitrificated storage solution to be melted completely [4]: shortened
growth of ice crystals ([4]; concluded from melting time): suppresses the growth of ice crystals

OCCO [EG, Ethylene glycol]
differentiation promoting effect on the CMES cells [5]: no differentiation promoting effect
nature of the colony morphology [5]: good
survival rate after melting ([6]; 40% solution in PBS, left standing for 60 seconds before vitrification): substantially lowered as compared with DMSO+PG; also recorded: second highest
colonies after vitrification, melting and culture [6]: biggest colony
preservation efficiency [7]: high preservation efficiency

OCCCCO [BG, Butylene glycol]
vitrification by rapid cooling with liquid nitrogen [3]: vitrified

CC(O)CO (centres unmarked) [PG, Propylene glycol]
vitrification by rapid cooling with liquid nitrogen [3]: vitrified
differentiation promoting effect on the CMES cells [5]: no differentiation promoting effect
nature of the colony morphology [5]: good
colonies after vitrification, melting and culture [6]: secondly

CC(N)=O [acetamide, Acetamide]
survival rate, effect of acetamide ([6]; DAP213 versus DP23, vitrification after 60 seconds): reduced
improvement of the survival rate due to acetamide ([6]; DAP213 versus DP23, vitrification within 15 seconds): not recognized

CC(O)COC(C)CO (centres unmarked) [DPG, Diprepylene glycol]
vitrification by rapid cooling with liquid nitrogen [3]: vitrified

C[S+](C)[O-] [DMSO, Dimethyl sulfoxide]
vitrification by rapid cooling with liquid nitrogen [3]: no vitrification occurs
differentiation promoting effect on the CMES cells [5]: no differentiation promoting effect
nature of the colony morphology [5]: good
colonies after vitrification, melting and culture [6]: least number of colonies

OC[C@H]1O[C@@](CO)(O[C@H]2O[C@H](CO)[C@@H](O)[C@H](O)[C@H]2O)[C@@H](O)[C@@H]1O [sucrose, Sucrose, reference compound]
time required for the once vitrificated storage solution to be melted completely [4]: no reduction of melting time
